Assay results from patent publication US12357570B2, “Chemoembolization agents” (BRUIN BIOSCIENCES, INC., priority 2017, dated 2025).
“Also recorded” adds a separate entry of the source.

Assays:
[1] = human, 400 mg twice daily, cited from earlier work
[2] = cited from earlier work
[3] = Loading of liposome-encapsulated drug on DC Beads (supernatant HPLC/MS); assay type: physicochemical; conditions: for loading on DC Beads: cationic liposomes DOTAP/DOPC; for amount loaded: start of elution, liposomal drug on DC Beads
Protocol: (§1) This was accomplished via a two-step process: 1) Sorafenib was made water-soluble by encapsulation into an encapsulating agent that is positively charged on its outer surface (cationic liposomes) and 2) association of a plurality of the loaded encapsulating agents so obtained onto microspheres (DC Beads®). In order to accomplish this, Sorafenib para-toluene sulfonate salt (9.1 mg), DOTAP (1,2-dioleoyl-3-trimethylammonium-propane chloride salt, 100 mg) and DOPC (1,2-dioleoyl-sn-glycero-3-phosphocholine, 101.1 mg) were dissolved in ethanol (0.5 mL) and this solution was added dropwise to a 10% trehalose solution (9 mL) under stirring. The resulting viscous emulsion was stirred at room temperature for 5 minutes and then filtered through a manual liposomal extruder using a 200 nm polycarbonate membrane. The resulting unilamellar liposomal solution was lyophilized overnight to yield a white solid, which was reconstituted in deionized water (1.82 mL) to yield a final Sorafenib concentration of 5 mg/mL. DC Beads® (2 mL, having about 200,000 beads with an average bead diameter of about 100-300 microns as measured by light scattering) were drained of as much liquid as possible and treated with the liposomal solution. The concentration of Sorafenib in the supernatant was measured over time by HPLC/MS. After approximately 46 hours, equilibrium was reached and loading of Sorafenib appeared to be approximately 52%. It is possible that saturation was reached and that more beads are needed to increase loading. For elution experiments, the liposomal solution with the DC Beads® was passed through a cotton filter, leaving the DC Beads® on the filter. PBS (1.0 M, pH 7.4) warmed to 37° C. was passed over the beads at 4 mL/min for 60 minutes. Four 40 mL vials were collected and analyzed by HPLC/MS/MS to determine the concentration of Sorafenib in each sample. Ten 3 mL vials were collected and analyzed by HPLC/MS/MS to establish the drug elution kinetics for Sorafenib.
This was accomplished via a two-step process: 1) Regorafenib (4.7229 mg) was made water-soluble by encapsulation into an encapsulating agent that is positively charged on its outer surface (cationic liposomes) and 2) association of a plurality of the loaded encapsulating agents so obtained onto microspheres. In short, Regorafenib (6.9 mg), DOTAP (1,2-dioleoyl-3-trimethylammonium-propane chloride salt, 100 mg) and DOPC (1,2-dioleoyl-sn-glycero-3-phosphocholine, 101.1 mg) were dissolved in ethanol (0.5 mL) and this solution was added dropwise to a 10% trehalose solution (9 mL) under stirring. […] The concentration of Regorafenib in the supernatant was measured over time by HPLC/MS. […] Four 40 mL vials were collected and analyzed by HPLC/MS/MS to determine the concentration of […] in each sample.

[4] = Elution of liposome-encapsulated drug from DC Beads with PBS pH 7.4 at 37° C.; assay type: physicochemical; conditions: for Remaining drug to be eluted: after Fraction I (solvent-final)
Protocol: as §1, with “PBS (1.0 M, pH 7.4) warmed to 37° C. was passed over the beads at 4 mL/min for 60 minutes.” left out
This was accomplished via a two-step process: 1) Regorafenib (4.7229 mg) was made water-soluble by encapsulation into an encapsulating agent that is positively charged on its outer surface (cationic liposomes) and 2) association of a plurality of the loaded encapsulating agents so obtained onto microspheres. In short, Regorafenib (6.9 mg), DOTAP (1,2-dioleoyl-3-trimethylammonium-propane chloride salt, 100 mg) and DOPC (1,2-dioleoyl-sn-glycero-3-phosphocholine, 101.1 mg) were dissolved in ethanol (0.5 mL) and this solution was added dropwise to a 10% trehalose solution (9 mL) under stirring. The resulting viscous emulsion was stirred at room temperature for 5 minutes and then filtered through a manual liposomal extruder using a 200 nm polycarbonate membrane. The resulting unilamellar liposomal solution was lyophilized overnight to yield a white solid, which was reconstituted in deionized water (1.8 mL) to yield a final Regorafenib concentration of 5 mg/mL. DC Beads® (2 mL) were drained of as much liquid as possible and treated with the liposomal solution. The concentration of Regorafenib in the supernatant was measured over time by HPLC/MS. After approximately 92 hours, equilibrium was reached and loading of Regorafenib appeared to be approximately 25%. For elution experiments, the liposomal solution with the DC Beads® was passed through a cotton filter, leaving the DC Beads® on the filter. […] Four 40 mL vials were collected and analyzed by HPLC/MS/MS to determine the concentration of […] in each sample.

[5] = after a 24 hour period; previous observations; cited from earlier work
[6] = Loading of non-encapsulated drug on DC Beads (residual unloaded drug by HPLC); assay type: physicochemical; conditions: room temperature
Protocol: A drug-loading solution was prepared by adding sterile water to a vial of doxorubicin hydrochloride powder (Pharmacia & Upjohn, Kalamazoo, MI) to produce a solution of the desired concentration (for the loading experiment 25 mg Doxorubicin salt was dissolved in 5 mL water. 0.043 mmol/5 mL=8.6 mM solution). 1 mL volume of beads was aspirated via syringe, purged of as much liquid as possible, then an aqueous solution Doxorubicin (5 mL, 5 mg/mL concentration) aspirated and mixed with beads. The mixture was dispensed into a sealed vial and left to load at room temperature without agitation and left for a time until the red coloration in the solution had diminished and the beads had taken on a red color. This time was dependent on drug loading solution concentration and bead size.
The extent of drug loading was calculated from the residual unloaded drug content determined by UV/visible HPLC with DAD detector at 220 and 254 nm (Agilent 1100 Series). Estimated uptake of Doxorubicin was approximately 90% loading after 25 hours, and approximately 99% loading after 91 hours.
Sunitinib was loaded to DC Beads® using a procedure similar to that for Example 6. Estimated uptake of Sunitinib was approximately 99% after 6 hours and >99.8% after 24 hours at room temperature.

[7] = Fraction I (solvent-final), time 320 minutes

| amount loaded [3] [mg] | % eluted ([4]; Fraction B, time 40 minutes) [%] | Cumulative elution % ([4]; Fraction B, time 40 minutes) [%] | amount eluted ([4]; Fraction B, time 40 minutes) [mg] | % eluted ([4]; Fraction C, time 80 minutes) [%] | Cumulative elution % ([4]; Fraction C, time 80 minutes) [%] | amount eluted ([4]; Fraction C, time 80 minutes) [mg] | % eluted ([4]; Fraction D, time 120 minutes) [%] | Cumulative elution % ([4]; Fraction D, time 120 minutes) [%] | amount eluted ([4]; Fraction D, time 120 minutes) [mg] | % eluted ([4]; Fraction E, time 160 minutes) [%] | Cumulative elution % ([4]; Fraction E, time 160 minutes) [%] | amount eluted ([4]; Fraction E, time 160 minutes) [mg] | % eluted ([4]; Fraction F, time 200 minutes) [%] | Cumulative elution % ([4]; Fraction F, time 200 minutes) [%] | amount eluted ([4]; Fraction F, time 200 minutes) [mg] | % eluted ([4]; Fraction G, time 240 minutes) [%] | Cumulative elution % ([4]; Fraction G, time 240 minutes) [%] | amount eluted ([4]; Fraction G, time 240 minutes) [mg] | Compound | water solubility [2] | also measured |
| --- | --- | --- | --- | --- | --- | --- | --- | --- | --- | --- | --- | --- | --- | --- | --- | --- | --- | --- | --- | --- | --- |
| 4.7229 | 65.4259 | 65.4259 | 3.09 | 10.6714 | 76.0973 | 0.504 | 0.6479 | 76.7452 | 0.0306 | 0.6924 | 77.4376 | 0.0327 | 0.1912 | 77.6287 | 0.00903 | 0.1188 | 77.7475 | 0.00561 | CNC(=O)c1cc(Oc2ccc(NC(=O)Nc3ccc(Cl)c(C(F)(F)F)c3)cc2)ccn1 [Sorafenib, 4-{4-[3-(4-chloro-3-trifluoro-phenyl)-ureido]-phenoxyl}-pyridine-2-carboxylic methylamine] | mostly insoluble; also recorded: very poor | mean t½ [1]: 27.4 h; Cmax ([1]; read-out: Cmax in plasma): ~11.6 µM; solubility in alcohol ([2]; alcohol): slightly soluble; solubility in polyethylene glycol 400 ([2]; polyethylene glycol 400): fully soluble; loading on DC Beads ([3]; equilibrium after approximately 46 hours): approximately 52%; % eluted ([4]; Fraction H, time 280 minutes): 0.00648%; Cumulative elution % ([4]; Fraction H, time 280 minutes): 77.754%; amount eluted ([4]; Fraction H, time 280 minutes): 0.000306 mg; % eluted [4, 7]: 4.9292%; Cumulative elution % [4, 7]: 82.68%; amount eluted [4, 7]: 0.2328 mg; Remaining drug to be eluted [4]: 0.8179 mg; concentration released in smaller increments thereafter ([4]; after initial release): 0.2 µM; drug remained on the beads ([4]; after the last elution time point): Approximately 17%; concentration released initially ([4]; initial release from beads): 4 to 20 µM; fraction of loaded drug eluted ([4]; over 40 minutes): approximately 2% |
| 2.1931 | 68.3963 | 68.3963 | 1.5 | 2.3255 | 70.7218 | 0.051 | 0.0109 | 70.7327 | 0.00024 | 0.00286 | 70.7356 | 0.0000628 | 0.0017 | 70.7373 | 0.0000372 | 0.0017 | 70.739 | 0.0000364 | CNC(=O)c1cc(Oc2ccc(NC(=O)Nc3ccc(Cl)c(C(F)(F)F)c3)c(F)c2)ccn1 [Regorafenib] | poor | loading on DC Beads ([3]; equilibrium after approximately 92 hours): approximately 25%; % eluted ([4]; Fraction H, time 280 minutes): 0.0049%; Cumulative elution % ([4]; Fraction H, time 280 minutes): 70.7439%; amount eluted ([4]; Fraction H, time 280 minutes): 0.000108 mg; % eluted [4, 7]: 3.5384%; Cumulative elution % [4, 7]: 74.2823%; amount eluted [4, 7]: 0.0776 mg; Remaining drug to be eluted [4]: 0.5723 mg |
| – | – | – | – | – | – | – | – | – | – | – | – | – | – | – | – | – | – | – | COc1cccc2c1C(=O)c1c(O)c3c(c(O)c1C2=O)C[C@@](O)(C(=O)CO)C[C@@H]3O[C@H]1C[C@H](N)[C@H](O)[C@H](C)O1 [Doxorubicin] | – | fraction of drug eluted [5]: about 4%; Estimated uptake (loading) on DC Beads ([6]; after 25 hours): approximately 90%; Estimated uptake (loading) on DC Beads ([6]; after 91 hours): approximately 99% |
